One may read the IC50 as the concentration at which inhibition is half-maximal.

T1 sequence (Q16539 whole entry): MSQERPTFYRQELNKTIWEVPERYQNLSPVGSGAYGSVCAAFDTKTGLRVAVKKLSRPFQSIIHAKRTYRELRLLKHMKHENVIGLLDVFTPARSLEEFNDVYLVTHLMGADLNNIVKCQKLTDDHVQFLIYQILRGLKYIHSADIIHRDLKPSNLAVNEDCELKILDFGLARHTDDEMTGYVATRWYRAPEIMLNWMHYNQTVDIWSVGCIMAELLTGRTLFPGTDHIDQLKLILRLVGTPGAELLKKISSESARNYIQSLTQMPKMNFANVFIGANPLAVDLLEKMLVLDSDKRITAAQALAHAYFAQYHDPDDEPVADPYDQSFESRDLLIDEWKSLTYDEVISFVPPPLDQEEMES

The assay addresses T1, human p38alfa (SAPKa) enzyme (Homo sapiens, UniProt Q16539).
T1 construct: purchased University of Dundee
In words: p38alpha enzymatic inhibition assay (FRET, ATF2 substrate). It counts as biochemical. As to conditions: 1 h pre-incubation; ATF2 0.62 μM, ATP 60 μM; 1 h at 25° C.; read-out: p38α IC50. As for the experimental part: Enzymatic activity assay was performed in 96-well microtiter plates (Corning, catalog number # 3686) using a total volume of 50 μl of an assay buffer composed of 50 mM HEPES (4-(2-hydroxyethyl)-1-piperazineethanesulfonic acid) pH 7.5, 10 mM MgCl2, 1.75 mM Na3VO4.
Various concentrations of the test compound or vehicle controls were pre-incubated for one hour with 0.055 μg/ml of the human p38alfa (SAPKa) enzyme (obtained from University of Dundee). The reaction started by addition of biotinylated ATF2 substrate and ATP in concentrations around their Km values (final concentration 0.62 μM and 60 μM respectively) and took place for one hour at 25° C. Addition of the detection reagents, streptavidin—XL665 and anti-phosphoresidue antibody coupled to Europium cryptate, caused the juxtaposition of the cryptate and the XL665 fluorophore, resulting in fluorescence energy transfer (FRET).The FRET intensity depends on the amount of bounded cryptate antibody, which is proportional to the extent of substrate phosphorylation. FRET intensity was measured using Victor 2V spectrofluorometer.
Data were analyzed by non-linear regression (Hill equation) to generate a dose-response curve. The calculated IC50 value is the concentration of the test compound that caused a 50% decrease in the maximal FRET intensity.
In the case of `Cc1c(F)cc(C(=O)NC2CC2)cc1-c1ccn2c(=O)n(CC(C)(C)C)nc2c1` [Example 2, N-cyclopropyl-3-[2-(2,2-dimethylpropyl)-3-oxo-2,3-dihydro[1,2,4]triazolo[4,3-a]pyridin-7-yl]-5-fluoro-4-methylbenzamide], the IC50 was determined as 2 nM.

Take `Cc1c(F)cc(C(=O)NC2CC2)cc1-c1ccn2c(=O)n(-c3ccccc3Cl)nc2c1` [Example 7, 3-[2-(2-Chlorophenyl)-3-oxo-2,3-dihydro[1,2,4]triazolo[4,3-a]pyridin-7-yl]-N-cyclopropyl-5-fluoro-4-methylbenzamide]: the half-inhibitory concentration (IC50) is 1.08 nM.

As for `Cc1ccc2c(NC3CC3)noc2c1-c1ccn2c(=O)n(CC(C)(C)C)nc2c1` [Example 11], the IC50 worked out at 12 nM.

The values are drawn from patent publication US20120225904A1, “New 7-Phenyl-[1,2,4]triazolo[4,3-a]Pyridin-3(2H)-One Derivatives” (priority 2009, published 2012).
